Reference: patent US10905774B2, “Nanocage and use thereof” (KOREA INSTITUTE OF SCIENCE AND TECHNOLOGY, priority 2016, dated 2021)
“Also recorded” adds a separate entry of the source.

Legend:
[1] = system: HT29 human colon cancer cells; assay: Flow cytometry of nanocage binding to HT29 cancer cells; type: cell-based; details: 20, 200, 400 or 600 nM
Method: In order to confirm the affinity of cancer cells for nanocages produced using various SIRP proteins prepared in Examples 1-2 to 1-5, respectively in addition to the nanocage prepared in Example 1-1, flow cytometry was performed. Particularly, HT29 human colon cancer cells were seeded into 2×10^5 cells/ml and the wild-type ferritin heavy chain nanocage as a control group, the FH-SIRPα HV nanocage prepared in Example 1-1, the FH-hSIRPα WT nanocage prepared in Example 1, the FH-SIRPγ WT nanocage prepared in Example 1-3 and the FH-SIRPγ V2 nanocage prepared in Example 1-5 were treated at the concentration of 20, 200, 400 or 600 nM, respectively, and the degree of cell binding was measured. Particularly, after treating anti-ferritin heavy chain primary antibody (Abcam, Cambridge, UK, 1:200) and an Alexafluor 488-conjugated donkey anti-rabbit secondary antibody (Jackson ImmunoResearch, Suffolk, UK, 1:400), the cells were sorted according to fluorescence intensity through flow cytometry analysis.

[2] = system: CT26.CL25 mouse colon cancer cells; assay: Phagocytosis rate of CT26.CL25 cells by bone marrow-derived macrophages (counting phagocytized cells); type: cell-based; details: BMDMs cocultured with CT26.CL25 at 37° C. for 4 hours
Method: After the staining, phagocytosis rate of macrophages against cancer cells were determined by counting phagocytized cancer cells by the macrophages.

CT26.CL25 cancer cells [3] = assay: In vivo cancer growth inhibition, intratumoral nanocages; set-up: species or system Balb/c wild-type mice; details: CT26.CL25 subcutaneous; intratumoral 28 mg/kg
Method: (§1) The antitumor activities of the ferritin heavy chain nanocage prepared in Examples 1-1 to 1-5 and the doxorubicin nanocage complex prepared in Example 3 were examined. Particularly, Balb/c wild type mice were used as the experimental animals, and experiments on the above experimental animals were carried out according to the regulations of the KIST animal ethics committee.
First, in order to measure the in vivo anticancer activity of the various ferritin heavy chain nanocages prepared in Examples 1-1 to 1-5, 1×10^6 cells of CT26.CL25 cancer cells expressing β-galactosidase were subcutaneously injected on the left side of Balb/c wild-type mice in order to induce cancer and then each experimental substance (buffer only, FH-mSIRPα WT, FH-SIRPα HV, FH-SIRPγ WT and FH-SIRPγ V2) was injected intratumorally at dose of 28 mg/kg) after 5 day of tumor inoculation, and the length (L) and the width (W) of the tumor tissues were measured using a caliper at intervals of 3 days (FIG. 7A), and then the volume of tumor tissue was calculated using the following formula: Tumor tissue volume (V [mm^3])=(L [mm])×(W [mm])^2×0.5

CT26.CL25 cancer cells [4] = assay: In vivo cancer growth inhibition, tail vein injection of doxorubicin nanocage complex and comparators; set-up: species or system Balb/c wild-type mice; details: tail vein 1 mg/kg; for tumor tissues excised after 25 days of cancer cell injection: day 25
Method: as §1
In addition, the present inventors investigated the in vivo anticancer activity of the doxorubicin-encapsulated nanocage complex prepared in Example 3 above. Particularly, 1×10^6 cells of CT26.CL25 cancer cells were subcutaneously injected into the above Balb/c wild-type mice to induce cancer. On the 7th day after the injection of cancer cells, 1 mg/kg of each test substance (buffer only, doxorubicin-loaded FH-SIRPα HV nanocage, doxorubicin-loaded ferritin heavy chain nanocage, doxorubicin+recombinant SIRPα, doxorubicin only, FH-SIRPα HV nanocage, ferritin heavy chain nanocage or recombinant SIRPα) was injected first by the tail vein and further injected four times at interval of 3 days at the same dose. The animals were sacrificed for 25 days after the injection of cancer cells, and the tumor tissues were excised and an ex vivo image was taken (FIG. 7D). Further, the volume of the tumor tissue over time before the sacrifice of the experimental animals was recorded from 7 days after the injection of cancer cells at the interval of 3 days by calculating using the following formula after measuring length (L) and width (W) of tumor tissues using a caliper: Tumor tissue volume (V [mm^3])=(L [mm])×(W [mm])^2×0.5

[5] = system: secondary cancer transplanted to other site; assay: Anticancer memory effect: secondary tumor rechallenge and survival; type: in vivo, mice; details: after 80 days of tumor rechallenge
Excerpt: The present inventors have hypothesized that the effect of FH-SIRPα nanocage according to an embodiment of the present invention is due to the recruiting of immune cells from the results of Experimental Example 3. Thus, the present inventors analyze growth of secondary cancer transplanted to other site and counted survival rate of the experimental animals after excising primary tumor tissues from the experimental animals.

Human CD47 = Human CD47 (Homo sapiens, UniProt Q08722); assay: Surface plasmon resonance (SPR) analysis of affinities and kinetics of binding to human CD47
Method: (§2) The present inventors performed fluorescence microscopy to confirm whether the FH-SIRPα HV nanocage prepared in Example 1 specifically binds to CD47 on the surface of cancer cells. Specifically, CT26 mouse colorectal cancer cell line and HT29 human colorectal cancer cell line were inoculated at a concentration of 3×10^4 cells/ml. Then, after treating 400 nM of FH-SIRPα HV nanocage prepared in Example 1-1 or same amount of wild-type ferritin heavy chain nanocage as control group, anti-ferritin primary antibody (Abcam, Cambridge, UK) and FITC-conjugated anti-mouse rabbit secondary antibody (Jackson ImmunoResearch, Suffolk, UK) were treated and then fluorescence microscopic images were obtained. […] The affinities and kinetics of FH-SIRP α HV nanocage binding human or mouse CD47 were analyzed by surface plasmon resonance (SPR) analysis and the results are shown in Table 1 below.

Mouse CD47 = molecular target: T1, Mouse CD47 (Mus musculus, UniProt Q61735); assay: Surface plasmon resonance (SPR) analysis of affinities and kinetics of binding to mouse CD47
T1 sequence (Q61735 19-303): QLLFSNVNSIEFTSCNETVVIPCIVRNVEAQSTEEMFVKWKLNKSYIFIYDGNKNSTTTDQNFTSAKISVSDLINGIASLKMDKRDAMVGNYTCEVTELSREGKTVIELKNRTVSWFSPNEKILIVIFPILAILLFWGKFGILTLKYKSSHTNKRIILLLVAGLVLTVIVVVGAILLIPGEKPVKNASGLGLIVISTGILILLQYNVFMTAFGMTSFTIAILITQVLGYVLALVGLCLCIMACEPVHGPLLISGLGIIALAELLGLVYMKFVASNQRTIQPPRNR
Method: as §2

[6] = system: Raji, HT-29, 4T1, CT26 and CT26.CL25 cancer cells co-cultured with BMDMs; assay: Phagocytosis of cancer cells by bone marrow-derived macrophages (FACS); type: cell-based, human, mouse; details: 400 nM; compared with control group
Excerpt: (§3) Particularly, the present inventors observed the phagocytic action of macrophages and dendritic cells against tumor cells through FACS analysis. First, 3×10^5 cells/ml of bone marrow-derived macrophages (BMDMs) pre-stained with CellTracker Green (Thermo Fisher Scientific, USA) and (a) 1.25×10^6 cells/ml of human Raji Burkitt lymphoma cells, (b) human HT-29 colorectal cancer cells, (c) mouse 4T1 breast cancer cells, (d) mouse CT26 colorectal cancer cells and (e) mouse CT26.CL25 colorectal cancer cells overexpressing β-galactosidase pre-stained with pHrodo Red SE, respectively were seeded in RPMI medium and buffer only (control), the ferritin-SIRPα fusion nanocage (FH-SIRPα HV) of the present invention, the wild-type ferritin heavy chain nanocage (wtFH) and the monomeric SIRPα (mSIRPα) were treated at the concentration of 400 nM, respectively. […] The phagocytosis rate was determined by the following formula. […]

[7] = system: Raji, HT-29, 4T1, CT26 and CT26.CL25 cancer cells co-cultured with BMDCs; assay: Phagocytosis of cancer cells by bone marrow-derived dendritic cells (FACS); type: cell-based, human, mouse; details: 400 nM; compared with control group
Excerpt: as §3

[8] = five injections at interval of 3 days

Human CD47, sequence (Q08722 19-323): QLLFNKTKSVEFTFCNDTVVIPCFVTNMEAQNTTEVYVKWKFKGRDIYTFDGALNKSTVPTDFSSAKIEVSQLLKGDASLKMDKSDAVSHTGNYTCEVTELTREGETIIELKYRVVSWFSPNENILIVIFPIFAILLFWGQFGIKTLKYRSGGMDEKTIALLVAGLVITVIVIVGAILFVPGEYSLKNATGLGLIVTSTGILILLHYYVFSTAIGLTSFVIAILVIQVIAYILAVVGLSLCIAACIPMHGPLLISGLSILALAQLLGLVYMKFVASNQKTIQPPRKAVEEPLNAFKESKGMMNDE

Compound | degree of cell binding [1] | phagocytic activity against cancer cells [2] | antitumor activity (tumor growth) (CT26.CL25 cancer cells [3]) | tumor tissues excised after 25 days of cancer cell injection (CT26.CL25 cancer cells [4]) | anticancer effect (growth of cancer cells) (CT26.CL25 cancer cells [4]; [8]) | survival rate [5] | Kd (Human CD47) | ka (Human CD47) | kd (Human CD47) | Kd (Mouse CD47) | ka (Mouse CD47) | kd (Mouse CD47) | phagocytosis of cancer cells by macrophages (BMDMs) [6] | phagocytosis of cancer cells by dendritic cells (BMDCs) [7] | volume of the tumor (CT26.CL25 cancer cells [4]; [8])
FH-hSIRPα WT nanocage: Ferritin heavy chain nanocage of fusion protein with human SIRPα wild-type protein (SEQ ID NO: 92) | binds to cancer cells in a concentration-dependent manner | exhibited phagocytic activity against cancer cells | somewhat lowered |  |  |  |  |  |  |  |  |  |  |  | 
COc1cccc2c1C(=O)c1c(O)c3c(c(O)c1C2=O)C[C@@](O)(C(=O)CO)C[C@@H]3O[C@H]1C[C@H](N)[C@H](O)[C@H](C)O1 [doxorubicin] |  |  |  | limited | insignificant; also recorded: not so significant | 50% |  |  |  |  |  |  |  |  | 
mSIRPα: Monomeric (recombinant) SIRPα protein used as comparator |  |  |  | same tumor volume as the control group | not so significant | 50% | 5.4 pM | 7e+06 M⁻¹ s⁻¹ | 3.7e-05 s⁻¹ | 6.2 nM | 1.8e+06 M⁻¹ s⁻¹ | 0.011 s⁻¹ | significantly increased | significantly increased | exceeded 1,000 mm^3
wtFH: Wild-type ferritin heavy chain nanocage used as control [reference compound] | did not bind to cancer cells even when the concentration increased |  |  |  |  |  |  |  |  |  |  |  | very low | very low | 
